In patent US20040224898A1, “Compositions and methods for promoting lipid mobilization in humans” (priority 2002, published 2004):
Bridges are numbered along the chain shown (N, C = ends). Where no end group is shown, it is not given here.

What was measured:
Type in all cases: cell-based
human adipocytes [1] = test: Release of tritium label from radiolabeled palmitate (lipid mobilizing activity); details: for Ability to mobilize lipids in adipocytes: conclusion of Example 1, murine adipocytes
Protocol: Lipid mobilizing activity was assessed by assaying release of tritium label from radiolabeled palmitate. This assay was performed by maintaining human pre-adipocytes in Adipocyte Growth Medium (AGM), which is Dulbecco's Modified Eagle's Medium (DMEM) mixed 1:1 by volume with Ham's F-10 medium. Ham's F-10 medium comprises 15 millimolar HEPES buffer adjusted to pH 7.4 and supplemented with biotin, pantothenate, human recombinant insulin, dexamethasone, fungicide, bactericide, and 3% (v/v) fetal bovine serum). Pre-adipocytes differentiated to become mature adipocytes by three weeks of maintenance in AGM. On the day prior to assay, the adipocytes were washed and incubated overnight in Krebs-Ringers buffer comprising 0.1% fatty acid-free bovine serum albumin (BSA) and comprising 1 microCurie per milliliter of tritiated (9,10-^3H) palmitate. The following day, the medium was removed, and the cells were washed three times […]. Isoproterenol (0 to 5×10^−8 molar), Schistocera gregaria AKH II (0 to 5×10^−5 molar), or Krebs-Ringer buffer (with 0.1% fatty acid-free BSA) containing neither of these was added to the cell suspension in a volume of 150 microliters. The suspensions were incubated for 4 hours at 37° C., and then 100 microliters of each sample was subjected to scintillation counting to detect released label in the supernatant. The total amount of label incorporated was determined for each well by solubilizing the cells using 1% sodium dodecyl sulfate and subjecting the entire contents of the well to scintillation counting. Fractional release of label was calculated by dividing the amount of label detected in cell supernatant by the total amount of label detected in the supernatant and in the cells remaining in the well, and percentage release was calculated by multiplying fractional release by 100.
A similar study was done using the same methods, except that cockroach hypertrehalosemic factor (0 to 5×10^−5 molar) was used in place of S. gregaria AKH II.
A similar tritium label release experiment performed using Heliothis zea AKH II and Locusta migratoria, except that a two-hour incubation period was used in place of a 4 hour incubation period.

human adipocytes [2] = test: Glycerol release assay; details: for Lipid mobilizing activity: control hormones, Example 2; for Ability to promote lipid mobilization in human adipocytes: conclusion of Example 2
Protocol: (§1) Human pre-adipocytes were isolated by liposuction and maintained in AGM for three weeks in order to permit the pre-adipocytes to differentiate to become mature adipocytes. AGM was removed, and adipocytes were incubated in Krebs-Ringers buffer comprising 0.1% fatty acid-free BSA at 37° C. for five hours in the presence of selected concentrations (10^−9 to 10^−5 molar) of one of Schistocera gregaria AKH II, cockroach hypertrehalosemic factor (obtained from Sigma Chemical Co, St. Louis, Mo., catalog number P0175), and Locusta migratoria AKH I (obtained from American Peptide Co., Sunnyvale, Calif., catalog number 60-9-18). Glycerol released from the adipocytes was assayed using a commercially available kit (GPO-trinder assay kit available form Sigma Chemical Company, St. Louis, Mo.).
A similar experiment was performed, in which glycerol release from adipocytes was assessed in the presence of the Locusta migratoria AKH I or the cockroach hypertrehalosemic factor or in the presence of isoproterenol.

human adipocytes [3] = test: Effect of propanolol on agent-induced glycerol release; details: for Glycerol Release, No Agent (medium concentration in millimolar): propanolol alone
Protocol: as §1
Glycerol release assays were performed as described in Example 2, except that the assays were performed using single selected concentrations of one of cockroach hypertrehalosemic factor, Locusta migratoria AKH I, and isoproterenol and multiple selected concentrations of propanolol.

[4] = agent 1 × 10^−8 molar, 4 hours, 37° C., Table 5 experiment
[5] = agent 1 × 10^−9 molar, 4 hours, 37° C., Table 5 experiment
[6] = agent 1 × 10^−10 molar, 4 hours, 37° C., Table 5 experiment
[7] = agent 1 × 10^−6, Table 9 experiment
[8] = agent 1 × 10^−7, Table 9 experiment
[9] = agent 1 × 10^−8, Table 9 experiment
[10] = agent 1 × 10^−5 molar, five hours, 37° C., Table 8 experiment
[11] = agent 1 × 10^−6 molar, five hours, 37° C., Table 8 experiment
[12] = agent 1 × 10^−7 molar, five hours, 37° C., Table 8 experiment
[13] = agent 1 × 10^−8 molar, five hours, 37° C., Table 8 experiment
[14] = agent 1 × 10^−9 molar, five hours, 37° C., Table 8 experiment

## CC(C)NCC(O)c1ccc(O)c(O)c1 (stereo not shown) [Isoproterenol, isoproterenol, reference compound]
Human adipocytes [1]; [4]
  % Tritium Label Release with Agent: 15.58%
Human adipocytes [1]; agent 1 × 10^−8 molar, 4 hours, 37° C., Table 6 experiment
  % Tritium Label Release with Agent: 9.8%
Human adipocytes [1]; [5]
  % Tritium Label Release with Agent: 12.67%
Human adipocytes [1]; agent 1 × 10^−9 molar, 4 hours, 37° C., Table 6 experiment
  % Tritium Label Release with Agent: 6.67%
Human adipocytes [1]; [6]
  % Tritium Label Release with Agent: 11.11%
Human adipocytes [1]; agent 1 × 10^−10 molar, 4 hours, 37° C., Table 6 experiment
  % Tritium Label Release with Agent: 8.97%
Human adipocytes [1]; agent 1 × 10^−11 molar, 4 hours, 37° C., Table 5 experiment
  % Tritium Label Release with Agent: 9.9%
Human adipocytes [1]; agent 1 × 10^−11 molar, 4 hours, 37° C., Table 6 experiment
  % Tritium Label Release with Agent: 5.87%
Human adipocytes [1]; agent 5 × 10^−8 molar, 4 hours, 37° C., Table 5 experiment
  % Tritium Label Release with Agent: 16.99%
Human adipocytes [1]; agent 5 × 10^−8 molar, 4 hours, 37° C., Table 6 experiment
  % Tritium Label Release with Agent: 10.8%
Human adipocytes [1]; agent 5 × 10^−9 molar, 4 hours, 37° C., Table 5 experiment
  % Tritium Label Release with Agent: 14.14%
Human adipocytes [1]; agent 5 × 10^−9 molar, 4 hours, 37° C., Table 6 experiment
  % Tritium Label Release with Agent: 5.93%
Human adipocytes [1]; agent 5 × 10^−10 molar, 4 hours, 37° C., Table 5 experiment
  % Tritium Label Release with Agent: 11.21%
Human adipocytes [1]; agent 5 × 10^−10 molar, 4 hours, 37° C., Table 6 experiment
  % Tritium Label Release with Agent: 7.58%
Human adipocytes [1]; agent 5 × 10^−11 molar, 4 hours, 37° C., Table 5 experiment
  % Tritium Label Release with Agent: 10.62%
Human adipocytes [1]; agent 5 × 10^−11 molar, 4 hours, 37° C., Table 6 experiment
  % Tritium Label Release with Agent: 6.96%
Human adipocytes [1]; agent 5 × 10^−12 molar, 4 hours, 37° C., Table 5 experiment
  % Tritium Label Release with Agent: 10.12%
Human adipocytes [1]; agent 5 × 10^−12 molar, 4 hours, 37° C., Table 6 experiment
  % Tritium Label Release with Agent: 6.81%
Human adipocytes [2]; [7]
  Glycerol Release with Agent (medium concentration in millimolar): 0.5172 ± 0.1659 millimolar
Human adipocytes [2]; [8]
  Glycerol Release with Agent (medium concentration in millimolar): 0.2169 ± 0.0316 millimolar
Human adipocytes [2]; [9]
  Glycerol Release with Agent (medium concentration in millimolar): 0.1325 ± 0.0244 millimolar
Human adipocytes [2]; agent 1 × 10^−9, Table 9 experiment
  Glycerol Release with Agent (medium concentration in millimolar): 0.0381 ± 0.011 millimolar
Human adipocytes [3]; agent 1 micromolar, propanolol 0 molar
  Glycerol Release with Agent (medium concentration in millimolar): 0.5172 millimolar
Human adipocytes [3]; agent 1 micromolar, propanolol 1 × 10^−5 molar
  Glycerol Release with Agent (medium concentration in millimolar): 0.2305 millimolar
Human adipocytes [3]; agent 1 micromolar, propanolol 1 × 10^−6 molar
  Glycerol Release with Agent (medium concentration in millimolar): 0.411 millimolar
Human adipocytes [3]; agent 1 micromolar, propanolol 1 × 10^−7 molar
  Glycerol Release with Agent (medium concentration in millimolar): 0.6533 millimolar

## CC(C)NCC(O)COc1cccc2ccccc12 (stereo not shown) [Propanolol, propanolol]
Human adipocytes [3]; adipocytes
  Inhibition by propanolol of glycerol release induced by isoproterenol: able to inhibit glycerol release
Human adipocytes [3]; 1 × 10^−5 molar
  Glycerol Release, No Agent (medium concentration in millimolar): 0.0463 ± 0.0042 millimolar
Human adipocytes [3]; 1 × 10^−6 molar
  Glycerol Release, No Agent (medium concentration in millimolar): 0.0417 ± .00072 millimolar
Human adipocytes [3]; 1 × 10^−7 molar
  Glycerol Release, No Agent (medium concentration in millimolar): 0.0399 ± 0.0069 millimolar
Human adipocytes [3]; 1 × 10^−8 molar
  Glycerol Release, No Agent (medium concentration in millimolar): 0.0399 ± 0.0083 millimolar

## DFDMLRCMLGRVYRPCWQV (disulfide 7-16 (inferred); listed as Insect sp.) [melanocyte concentrating hormone, reference compound]
Human adipocytes [2]
  Lipid mobilizing activity: No lipid mobilizing activity could be detected

## ELNFSTGW (listed as Schistocerca gregaria) [Schistocera gregaria AKH II, insect adipokinetic hormone of the desert locust]
Human adipocytes [1]; agent 1 × 10^−5 molar, 4 hours, 37° C., Table 5 experiment
  % Tritium Label Release with Agent: 14.28%
Human adipocytes [1]; agent 1 × 10^−6 molar, 4 hours, 37° C., Table 5 experiment
  % Tritium Label Release with Agent: 13.38%
Human adipocytes [1]; agent 1 × 10^−7 molar, 4 hours, 37° C., Table 5 experiment
  % Tritium Label Release with Agent: 10.76%
Human adipocytes [1]; [4]
  % Tritium Label Release with Agent: 10.76%
Human adipocytes [1]; [5]
  % Tritium Label Release with Agent: 9.6%
Human adipocytes [1]; [6]
  % Tritium Label Release with Agent: 10.74%
Human adipocytes [1]; agent 5 × 10^−5 molar, 4 hours, 37° C., Table 5 experiment
  % Tritium Label Release with Agent: 16.65%
Human adipocytes [1]; agent 5 × 10^−6 molar, 4 hours, 37° C., Table 5 experiment
  % Tritium Label Release with Agent: 14.94%
Human adipocytes [1]; agent 5 × 10^−7 molar, 4 hours, 37° C., Table 5 experiment
  % Tritium Label Release with Agent: 11.31%
Human adipocytes [1]
  Ability to mobilize lipids in adipocytes: able to mobilize lipids
Human adipocytes [2]; [10]
  Glycerol Release with Agent (medium concentration in millimolar): 0.693 millimolar
Human adipocytes [2]; [11]
  Glycerol Release with Agent (medium concentration in millimolar): 0.628 millimolar
Human adipocytes [2]; [12]
  Glycerol Release with Agent (medium concentration in millimolar): 0.530 millimolar
Human adipocytes [2]; [13]
  Glycerol Release with Agent (medium concentration in millimolar): 0.523 millimolar
Human adipocytes [2]; [14]
  Glycerol Release with Agent (medium concentration in millimolar): 0.486 millimolar
Human adipocytes [2]
  Ability to promote lipid mobilization in human adipocytes: able to promote lipid mobilization

## ELNFTPNWGT (listed as Schistocerca gregaria) [Locusta migratoria AKH I, insect adipokinetic hormone, American Peptide Co. catalog number 60-9-18]
Human adipocytes [1]; agent 1 × 10^−5 molar, two-hour incubation, Table 7
  % Tritium Label Release with Agent: 10.8%
Human adipocytes [1]; agent 1 × 10^−6 molar, two-hour incubation, Table 7
  % Tritium Label Release with Agent: 7.52%
Human adipocytes [1]; agent 1 × 10^−7 molar, two-hour incubation, Table 7
  % Tritium Label Release with Agent: 6.34%
Human adipocytes [1]; agent 1 × 10^−8 molar, two-hour incubation, Table 7
  % Tritium Label Release with Agent: 7.00%
Human adipocytes [1]; agent 1 × 10^−9 molar, two-hour incubation, Table 7
  % Tritium Label Release with Agent: 7.44%
Human adipocytes [1]; agent 1 × 10^−10 molar, two-hour incubation, Table 7
  % Tritium Label Release with Agent: 7.62%
Human adipocytes [1]
  Ability to mobilize lipids in adipocytes: able to mobilize lipids
Human adipocytes [2]; agent 1 × 10^−5, Table 9 experiment
  Glycerol Release with Agent (medium concentration in millimolar): 0.0871 ± 0.0134 millimolar
Human adipocytes [2]; [10]
  Glycerol Release with Agent (medium concentration in millimolar): 0.691 millimolar
Human adipocytes [2]; [7]
  Glycerol Release with Agent (medium concentration in millimolar): 0.0427 ± 0.0129 millimolar
Human adipocytes [2]; [11]
  Glycerol Release with Agent (medium concentration in millimolar): 0.467 millimolar
Human adipocytes [2]; [8]
  Glycerol Release with Agent (medium concentration in millimolar): 0.0336 ± 0.0082 millimolar
Human adipocytes [2]; [12]
  Glycerol Release with Agent (medium concentration in millimolar): 0.490 millimolar
Human adipocytes [2]; [9]
  Glycerol Release with Agent (medium concentration in millimolar): 0.0209 ± 0.0110 millimolar
Human adipocytes [2]; [13]
  Glycerol Release with Agent (medium concentration in millimolar): 0.476 millimolar
Human adipocytes [2]; [14]
  Glycerol Release with Agent (medium concentration in millimolar): 0.611 millimolar
Human adipocytes [2]
  Ability to promote lipid mobilization in human adipocytes: able to promote lipid mobilization
Human adipocytes [3]; agent 10 micromolar, propanolol 0 molar
  Glycerol Release with Agent (medium concentration in millimolar): 0.0871 ± 0.0134 millimolar
Human adipocytes [3]; agent 10 micromolar, propanolol 1 × 10^−5 molar
  Glycerol Release with Agent (medium concentration in millimolar): 0.2214 ± 0.0287 millimolar
Human adipocytes [3]; agent 10 micromolar, propanolol 1 × 10^−6 molar
  Glycerol Release with Agent (medium concentration in millimolar): 0.2169 ± 0.0294 millimolar
Human adipocytes [3]; agent 10 micromolar, propanolol 1 × 10^−7 molar
  Glycerol Release with Agent (medium concentration in millimolar): 0.2486 ± 0.0249 millimolar

## SYSMEHFRWGKPV (Ac-SYSMEHFRWGKPV-NH2; listed as Insect sp.) [alpha-melanocyte stimulating hormone, reference compound]
Human adipocytes [2]
  Lipid mobilizing activity: No lipid mobilizing activity could be detected
